Several values for one entry are separate records, joined by “and”; a condition that tells them apart may be missing. Equal values may be shown once. Read-outs that look alike come from different tables or passages of the source.
How the values were obtained:
Experiment in all cases: SelectScreen kinase assay
BRAF [1] = conditions: IC50 on that kinase divided by IC50 on FES^S700C
Protocol: (§1) Selectivity profiling assays were performed by the Invitrogen SelectScreen™ Services. […] The concentration of ATP was selected to be equal to the KM, unless indicated otherwise.

BRAF [2] = target: BRAF (Homo sapiens, UniProt P15056)
Protocol: as §1

TAOK1 = TAOK1 (Homo sapiens, UniProt Q7L7X3)
Protocol: as §1

PIM1 = PIM1 (Homo sapiens, UniProt P11309); conditions: for Inhibition at 1 µM (%): PIM1, ZLYTE, ATP Km app
Protocol: as §1

TAOK2 (TAO1) = TAOK2 (TAO1) (Homo sapiens, UniProt Q9UL54)
Protocol: as §1

MERTK (cMER) = MERTK (cMER) (Homo sapiens, UniProt Q12866)
Protocol: as §1

AKT1 (PKB alpha) = AKT1 (PKB alpha) (Homo sapiens, UniProt P31749); conditions: for Inhibition at 1 µM (%): AKT1 (PKB alpha), ZLYTE, ATP Km app
Protocol: as §1

PLK3 = PLK3 (Homo sapiens, UniProt Q9H4B4)
Protocol: as §1

CSK = CSK (Homo sapiens, UniProt P41240); conditions: for Inhibition at 1 µM (%): CSK, ZLYTE, ATP Km app
Protocol: as §1

EPHB3 = target: T1, EPHB3 (Homo sapiens, UniProt P54753); conditions: for Inhibition at 1 µM (%): EPHB3, ZLYTE, ATP Km app
T1 sequence (P54753 34-998): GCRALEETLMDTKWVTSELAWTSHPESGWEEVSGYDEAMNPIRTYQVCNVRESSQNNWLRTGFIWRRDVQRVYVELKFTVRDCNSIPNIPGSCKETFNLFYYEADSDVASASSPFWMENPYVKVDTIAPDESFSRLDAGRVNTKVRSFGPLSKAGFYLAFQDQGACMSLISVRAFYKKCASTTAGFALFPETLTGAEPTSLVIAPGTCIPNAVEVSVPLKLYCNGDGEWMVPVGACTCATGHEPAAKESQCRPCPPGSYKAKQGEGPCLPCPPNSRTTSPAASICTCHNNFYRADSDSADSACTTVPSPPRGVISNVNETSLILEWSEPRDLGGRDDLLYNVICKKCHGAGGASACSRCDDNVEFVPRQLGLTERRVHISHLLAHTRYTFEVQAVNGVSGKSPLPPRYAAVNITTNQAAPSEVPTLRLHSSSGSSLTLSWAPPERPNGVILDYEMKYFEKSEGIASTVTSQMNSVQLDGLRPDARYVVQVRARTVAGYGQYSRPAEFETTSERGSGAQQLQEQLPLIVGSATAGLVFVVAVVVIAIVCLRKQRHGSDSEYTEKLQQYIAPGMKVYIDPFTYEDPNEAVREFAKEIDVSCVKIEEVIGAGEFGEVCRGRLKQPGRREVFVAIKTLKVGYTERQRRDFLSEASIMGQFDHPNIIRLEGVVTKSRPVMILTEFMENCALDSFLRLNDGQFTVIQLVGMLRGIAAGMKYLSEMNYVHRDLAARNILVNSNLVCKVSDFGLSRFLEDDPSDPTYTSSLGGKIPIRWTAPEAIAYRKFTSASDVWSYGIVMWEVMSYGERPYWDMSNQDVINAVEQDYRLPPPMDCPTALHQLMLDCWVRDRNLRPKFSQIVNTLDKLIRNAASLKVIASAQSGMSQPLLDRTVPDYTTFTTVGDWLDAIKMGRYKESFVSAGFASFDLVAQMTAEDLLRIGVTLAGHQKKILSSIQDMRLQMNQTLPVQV
Protocol: as §1

TNK1 = target: T2, TNK1 (Homo sapiens, UniProt Q13470)
T2 sequence (Q13470 1-666): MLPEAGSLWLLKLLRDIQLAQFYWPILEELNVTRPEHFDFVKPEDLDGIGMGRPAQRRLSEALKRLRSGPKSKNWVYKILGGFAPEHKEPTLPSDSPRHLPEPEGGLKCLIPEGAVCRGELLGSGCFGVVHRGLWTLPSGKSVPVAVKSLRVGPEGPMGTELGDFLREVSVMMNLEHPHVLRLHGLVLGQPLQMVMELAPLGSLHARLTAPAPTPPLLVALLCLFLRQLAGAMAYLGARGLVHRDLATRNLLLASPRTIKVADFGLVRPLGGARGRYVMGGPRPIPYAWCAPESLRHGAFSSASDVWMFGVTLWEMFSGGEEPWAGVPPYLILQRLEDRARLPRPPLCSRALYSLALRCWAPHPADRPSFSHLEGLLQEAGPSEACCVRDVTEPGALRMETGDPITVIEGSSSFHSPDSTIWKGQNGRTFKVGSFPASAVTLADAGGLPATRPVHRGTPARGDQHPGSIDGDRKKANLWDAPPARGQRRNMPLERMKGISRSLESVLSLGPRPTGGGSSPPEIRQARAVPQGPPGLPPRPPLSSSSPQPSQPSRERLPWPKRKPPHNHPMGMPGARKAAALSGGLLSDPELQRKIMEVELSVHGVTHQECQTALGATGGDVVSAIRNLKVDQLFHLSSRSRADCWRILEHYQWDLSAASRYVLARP
Protocol: as §1

IRAK1 = IRAK1 (Homo sapiens, UniProt P51617)
Protocol: as §1

DYRK1A = DYRK1A (Homo sapiens, UniProt Q13627); conditions: for Inhibition at 1 µM (%): DYRK1A, ZLYTE, ATP Km app
Protocol: as §1

[3] = 1 h, 1 μM WEL028, 1 h preincubation

Sequence of IRAK1 (P51617 whole entry): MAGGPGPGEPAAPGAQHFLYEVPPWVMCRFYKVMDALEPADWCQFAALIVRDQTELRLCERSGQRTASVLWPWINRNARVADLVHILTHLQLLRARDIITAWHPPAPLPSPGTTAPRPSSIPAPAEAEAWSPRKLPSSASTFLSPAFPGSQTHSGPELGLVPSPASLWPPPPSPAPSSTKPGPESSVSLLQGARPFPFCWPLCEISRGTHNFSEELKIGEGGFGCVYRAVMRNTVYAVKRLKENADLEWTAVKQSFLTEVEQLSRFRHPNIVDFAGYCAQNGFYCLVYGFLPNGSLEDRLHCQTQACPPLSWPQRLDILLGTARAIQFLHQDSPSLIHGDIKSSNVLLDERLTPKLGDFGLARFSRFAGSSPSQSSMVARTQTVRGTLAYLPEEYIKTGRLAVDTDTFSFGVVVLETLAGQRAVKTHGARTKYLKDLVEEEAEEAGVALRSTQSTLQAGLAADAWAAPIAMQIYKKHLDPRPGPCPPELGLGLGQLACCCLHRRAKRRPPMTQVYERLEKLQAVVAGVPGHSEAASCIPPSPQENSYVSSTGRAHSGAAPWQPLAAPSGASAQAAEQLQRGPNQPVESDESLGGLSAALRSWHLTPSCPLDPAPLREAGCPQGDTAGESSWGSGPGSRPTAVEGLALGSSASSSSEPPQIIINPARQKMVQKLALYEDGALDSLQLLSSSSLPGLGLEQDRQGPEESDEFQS
Sequence of PLK3 (Q9H4B4 whole entry): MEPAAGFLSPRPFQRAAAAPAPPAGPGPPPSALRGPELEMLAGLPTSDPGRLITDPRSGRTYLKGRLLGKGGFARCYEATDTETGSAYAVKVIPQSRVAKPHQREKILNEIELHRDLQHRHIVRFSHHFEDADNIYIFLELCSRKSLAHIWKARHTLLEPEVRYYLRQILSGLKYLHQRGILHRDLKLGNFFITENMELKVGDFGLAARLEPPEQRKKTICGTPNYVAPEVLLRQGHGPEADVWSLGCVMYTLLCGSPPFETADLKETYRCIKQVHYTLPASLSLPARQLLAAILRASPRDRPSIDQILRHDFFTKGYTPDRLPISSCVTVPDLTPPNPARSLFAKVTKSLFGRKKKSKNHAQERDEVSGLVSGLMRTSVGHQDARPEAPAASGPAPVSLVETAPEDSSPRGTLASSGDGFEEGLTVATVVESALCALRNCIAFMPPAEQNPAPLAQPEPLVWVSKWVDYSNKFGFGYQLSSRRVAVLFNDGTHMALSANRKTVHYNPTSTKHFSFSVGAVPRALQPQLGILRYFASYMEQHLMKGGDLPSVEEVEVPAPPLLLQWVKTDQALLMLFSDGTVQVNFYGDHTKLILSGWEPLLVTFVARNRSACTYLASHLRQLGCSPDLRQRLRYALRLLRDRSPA
Sequence of TAOK2 (TAO1) (Q9UL54 whole entry): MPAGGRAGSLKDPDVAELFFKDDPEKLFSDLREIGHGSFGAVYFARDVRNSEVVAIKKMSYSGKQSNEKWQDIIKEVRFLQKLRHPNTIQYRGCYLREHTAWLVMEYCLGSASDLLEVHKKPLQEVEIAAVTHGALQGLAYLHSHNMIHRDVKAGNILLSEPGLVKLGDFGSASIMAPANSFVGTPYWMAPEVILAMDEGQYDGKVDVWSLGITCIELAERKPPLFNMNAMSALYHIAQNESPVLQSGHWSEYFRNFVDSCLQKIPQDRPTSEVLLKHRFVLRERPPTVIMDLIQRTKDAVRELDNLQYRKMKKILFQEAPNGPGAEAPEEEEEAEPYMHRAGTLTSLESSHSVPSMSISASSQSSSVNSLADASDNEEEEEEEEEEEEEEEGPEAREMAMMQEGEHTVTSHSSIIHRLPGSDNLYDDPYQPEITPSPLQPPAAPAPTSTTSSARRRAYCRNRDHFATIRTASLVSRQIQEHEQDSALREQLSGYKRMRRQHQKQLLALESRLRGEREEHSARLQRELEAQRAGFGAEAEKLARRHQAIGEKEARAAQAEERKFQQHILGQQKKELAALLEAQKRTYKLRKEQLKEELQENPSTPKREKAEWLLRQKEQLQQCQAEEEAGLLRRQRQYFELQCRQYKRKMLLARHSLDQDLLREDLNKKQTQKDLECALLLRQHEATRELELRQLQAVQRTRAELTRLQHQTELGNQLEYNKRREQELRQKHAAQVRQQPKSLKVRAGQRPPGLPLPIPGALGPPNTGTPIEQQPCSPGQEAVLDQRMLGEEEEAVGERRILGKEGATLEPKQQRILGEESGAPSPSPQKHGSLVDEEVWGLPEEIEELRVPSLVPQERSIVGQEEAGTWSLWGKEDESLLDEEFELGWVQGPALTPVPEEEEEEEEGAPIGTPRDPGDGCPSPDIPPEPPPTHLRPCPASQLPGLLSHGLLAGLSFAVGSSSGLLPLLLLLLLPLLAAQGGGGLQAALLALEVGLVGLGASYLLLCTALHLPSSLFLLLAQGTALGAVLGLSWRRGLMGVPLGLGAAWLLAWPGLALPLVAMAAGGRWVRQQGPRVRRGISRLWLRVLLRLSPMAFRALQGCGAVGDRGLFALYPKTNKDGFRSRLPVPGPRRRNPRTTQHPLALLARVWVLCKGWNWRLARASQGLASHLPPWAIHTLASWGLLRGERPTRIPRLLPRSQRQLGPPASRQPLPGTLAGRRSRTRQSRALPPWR
Sequence of PIM1 (P11309 whole entry): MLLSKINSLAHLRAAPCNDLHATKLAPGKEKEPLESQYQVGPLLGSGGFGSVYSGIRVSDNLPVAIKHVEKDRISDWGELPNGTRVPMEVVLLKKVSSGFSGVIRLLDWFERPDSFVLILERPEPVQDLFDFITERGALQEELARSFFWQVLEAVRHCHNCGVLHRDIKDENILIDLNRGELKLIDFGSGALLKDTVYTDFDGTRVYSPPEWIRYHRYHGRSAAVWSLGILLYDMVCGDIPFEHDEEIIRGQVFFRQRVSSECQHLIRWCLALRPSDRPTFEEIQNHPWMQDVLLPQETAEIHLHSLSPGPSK
Sequence of AKT1 (PKB alpha) (P31749 whole entry): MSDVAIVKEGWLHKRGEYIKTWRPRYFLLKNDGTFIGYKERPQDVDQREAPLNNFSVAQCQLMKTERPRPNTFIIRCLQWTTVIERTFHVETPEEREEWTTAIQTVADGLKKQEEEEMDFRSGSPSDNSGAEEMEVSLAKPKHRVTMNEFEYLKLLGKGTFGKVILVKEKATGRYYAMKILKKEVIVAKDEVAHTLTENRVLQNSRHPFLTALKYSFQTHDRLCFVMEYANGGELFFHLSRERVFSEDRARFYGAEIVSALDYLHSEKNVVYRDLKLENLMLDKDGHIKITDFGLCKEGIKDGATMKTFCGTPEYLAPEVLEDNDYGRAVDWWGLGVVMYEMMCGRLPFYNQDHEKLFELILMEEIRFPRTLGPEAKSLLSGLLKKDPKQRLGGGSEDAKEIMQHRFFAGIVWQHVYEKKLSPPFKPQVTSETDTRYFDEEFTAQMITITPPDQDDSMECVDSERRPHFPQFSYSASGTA
Sequence of BRAF (Homo sapiens, UniProt P15056) (P15056 whole entry, species assumed): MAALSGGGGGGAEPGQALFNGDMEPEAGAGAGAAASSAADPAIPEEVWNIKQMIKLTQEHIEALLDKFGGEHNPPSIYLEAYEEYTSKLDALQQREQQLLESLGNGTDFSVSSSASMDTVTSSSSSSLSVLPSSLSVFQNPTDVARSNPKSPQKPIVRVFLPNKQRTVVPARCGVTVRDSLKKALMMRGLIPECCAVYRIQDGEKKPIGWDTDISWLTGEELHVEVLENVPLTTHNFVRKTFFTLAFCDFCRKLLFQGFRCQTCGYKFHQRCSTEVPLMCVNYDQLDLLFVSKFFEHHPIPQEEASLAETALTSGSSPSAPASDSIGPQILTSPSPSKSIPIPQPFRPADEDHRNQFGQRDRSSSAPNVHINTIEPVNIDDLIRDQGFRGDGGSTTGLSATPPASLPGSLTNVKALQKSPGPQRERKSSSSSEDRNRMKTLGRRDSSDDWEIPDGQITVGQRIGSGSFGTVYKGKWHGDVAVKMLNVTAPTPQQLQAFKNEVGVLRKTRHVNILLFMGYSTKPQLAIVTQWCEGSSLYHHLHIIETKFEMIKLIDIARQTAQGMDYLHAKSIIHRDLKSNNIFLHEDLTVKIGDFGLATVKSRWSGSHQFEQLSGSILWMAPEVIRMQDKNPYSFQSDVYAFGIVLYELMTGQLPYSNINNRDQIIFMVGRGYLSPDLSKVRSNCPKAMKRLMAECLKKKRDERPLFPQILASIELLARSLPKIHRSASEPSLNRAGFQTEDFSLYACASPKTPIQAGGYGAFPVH
Sequence of CSK (P41240 whole entry): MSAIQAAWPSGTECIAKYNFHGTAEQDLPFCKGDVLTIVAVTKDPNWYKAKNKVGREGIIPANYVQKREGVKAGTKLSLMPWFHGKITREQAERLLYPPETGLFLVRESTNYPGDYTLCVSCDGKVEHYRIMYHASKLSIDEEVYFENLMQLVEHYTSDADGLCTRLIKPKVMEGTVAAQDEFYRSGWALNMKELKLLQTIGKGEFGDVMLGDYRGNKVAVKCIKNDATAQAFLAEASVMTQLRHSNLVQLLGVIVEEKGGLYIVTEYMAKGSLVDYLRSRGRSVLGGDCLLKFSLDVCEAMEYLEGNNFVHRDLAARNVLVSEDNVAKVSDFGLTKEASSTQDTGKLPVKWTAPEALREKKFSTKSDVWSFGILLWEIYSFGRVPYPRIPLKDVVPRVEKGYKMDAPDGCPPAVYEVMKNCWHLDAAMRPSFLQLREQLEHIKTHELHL

Work on `C#CCOc1ccc(Nc2ncc(Cl)c(Nc3ccccc3NC(=O)C=C)n2)c(OC)c1` [Compound 6] yielded an Apparent fold selectivity (BRAF [1]) of 25 fold, an IC50 (BRAF [2]) of 100 nM and an inhibition at 1 µM (BRAF [2]; [3]) of 94%. The inhibition at 10 µM (BRAF [2]; 1 h, log[inhibitor] (M) -5.00, ZLYTE, ATP 100) was 98%, the inhibition at 3.311 µM (BRAF [2]; 1 h, log[inhibitor] (M) -5.48, ZLYTE, ATP 100) was 100% and the inhibition at 1.122 µM (BRAF [2]; 1 h, log[inhibitor] (M) -5.95, ZLYTE, ATP 100) was 96%. For the same compound, the inhibition at 0.3715 µM (BRAF [2]; 1 h, log[inhibitor] (M) -6.43, ZLYTE, ATP 100) was 65%, the inhibition at 0.123 µM (BRAF [2]; 1 h, log[inhibitor] (M) -6.91, ZLYTE, ATP 100) was 53% and the inhibition at 0.04074 µM (BRAF [2]; 1 h, log[inhibitor] (M) -7.39, ZLYTE, ATP 100) was 28%. For the same compound, the inhibition at 0.0138 µM (BRAF [2]; 1 h, log[inhibitor] (M) -7.86, ZLYTE, ATP 100) was 15%, the inhibition at 0.001514 µM (BRAF [2]; 1 h, log[inhibitor] (M) -8.82, ZLYTE, ATP 100) was 3% and the “Inhibition at 1 µM (%)” value (BRAF [2]; BRAF, 1 µM, ZLYTE, ATP 100, listed as WEL028, 1 µM) was 97%. It also gave an inhibition at 1 µM (BRAF [2]; read-out: Inhibition at 1 µM (%), BRAF, 1 µM, ZLYTE, ATP 100) of 90%, an inhibition at 1 µM (TAOK1; [3]) of 23% and an inhibition at 1 µM (TAOK1; read-out: Inhibition at 1 µM (%), 1 µM, LanthaScreen Binding) of 24%. For the same compound, the inhibition at 1 µM (PIM1; [3]) was -8%, the “Inhibition at 1 µM (%)” value (PIM1) was -11% and the “Inhibition at 1 µM (%)” value (PIM1; listed as WEL028, 1 µM) was -5%. The “Inhibition at 1 µM (%)” value (TAOK2 (TAO1); 1 µM, ZLYTE, ATP Km app, listed as WEL028, 1 µM) was -1% and 9%, the inhibition at 1 µM (TAOK2 (TAO1); [3]) was 4% and the inhibition at 1 µM (MERTK (cMER); [3]) was 4%. For the same compound, the “Inhibition at 1 µM (%)” value (MERTK (cMER); MERTK (cMER), 1 µM, ZLYTE, ATP Km app, listed as WEL028, 1 µM) was 0% and 9%, the inhibition at 1 µM (AKT1 (PKB alpha); [3]) was -3% and the “Inhibition at 1 µM (%)” value (AKT1 (PKB alpha)) was -2%. The “Inhibition at 1 µM (%)” value (AKT1 (PKB alpha); listed as WEL028, 1 µM) was -4%, the inhibition at 1 µM (PLK3; [3]) was -1% and the “Inhibition at 1 µM (%)” value (PLK3; PLK3, 1 µM, ZLYTE, ATP Km app, listed as WEL028, 1 µM) was 2% and -3%. The “Inhibition (%)” value (CSK; 1 μM WEL028, 1 h preincubation) was 5%, the “Inhibition at 1 µM (%)” value (CSK) was 2% and the “Inhibition at 1 µM (%)” value (CSK; listed as WEL028, 1 µM) was 8%. The inhibition at 1 µM (EPHB3; [3]) was 1%, the “Inhibition at 1 µM (%)” value (EPHB3) was 2% and the “Inhibition at 1 µM (%)” value (EPHB3; listed as WEL028, 1 µM) was 0%. For the same compound, the “Inhibition at 1 µM (%)” value (TNK1; 1 µM, ZLYTE, ATP Km app) was 41%, the inhibition at 1 µM (TNK1; 1 h) was 41% and the inhibition at 1 µM (TNK1; read-out: Inhibition at 1 µM (%)) was 41%. For the same compound, the inhibition at 1 µM (IRAK1; [3]) was 26%, the “Inhibition at 1 µM (%)” value (IRAK1; IRAK1, 1 µM, Adapta, ATP Km app, listed as WEL028, 1 µM) was 31% and the inhibition at 1 µM (IRAK1; read-out: Inhibition at 1 µM (%), IRAK1, 1 µM, Adapta, ATP Km app) was 20%. For the same compound, the inhibition at 1 µM (DYRK1A; [3]) was 1%, the “Inhibition at 1 µM (%)” value (DYRK1A) was 3% and the “Inhibition at 1 µM (%)” value (DYRK1A; listed as WEL028, 1 µM) was 0%.
